ChEMBL document CHEMBL1201862, “PubChem BioAssay data set” (2004)
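How tested: cells in 96-well plates exposed to compound for 48 hours at five concentrations. At the GI50, growth is halved.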 Activity calls are given as the source filed them. Rule as the data show it: active = GI50 up to about 1.1 µM and inactive = higher.

Columns and labels:
Experiment in all cases: DTP human tumour cell line panel, 48 h
A549 = system: A549
ACHN = system: ACHN
HCT-116 = system: HCT-116
HL-60 = system: HL-60
HT-29 = system: HT-29
LOX IMVI = system: LOX IMVI
MOLT-4 = system: MOLT-4
Malme-3M = system: Malme-3M
NCI-H226 = system: NCI-H226
NCI-H23 = system: NCI-H23
OVCAR-5 = system: OVCAR-5
RXF 393 = system: RXF 393
SF-268 = system: SF-268
UACC-257 = system: UACC-257
UO-31 = system: UO-31

Structure (SMILES)	GI50 (A549)	GI50 (ACHN)	GI50 (HCT-116)	GI50 (HL-60)	GI50 (HT-29)	GI50 (LOX IMVI)	GI50 (MOLT-4)	GI50 (Malme-3M)	GI50 (NCI-H226)	GI50 (NCI-H23)	GI50 (OVCAR-5)	GI50 (RXF 393)	GI50 (SF-268)	GI50 (UACC-257)	GI50 (UO-31)
CC(=O)Nc1ccccc1[S+]([O-])c1ccccc1 (centres undefined)	> 100 µM (inactive)	> 100 µM (inactive)	> 100 µM (inactive)	> 100 µM (inactive)	> 100 µM (inactive)	> 100 µM (inactive)	> 100 µM (inactive)	> 100 µM (inactive)	> 100 µM (inactive)	> 100 µM (inactive)	4.21 µM (inactive)	> 100 µM (inactive)	> 100 µM (inactive)	> 100 µM (inactive)	> 100 µM (inactive)
CN(C)CCNC(=O)c1cccc2c1nc(-c1ccccc1)c1ccccc12	1.07 µM (active)	2.88 µM (inactive)	2.69 µM (inactive)	1.26 µM (inactive)	3.35 µM (inactive)	1.47 µM (inactive)	0.323 µM (active)	–	2.83 µM (inactive)	6.65 µM (inactive)	4.66 µM (inactive)	2.58 µM (inactive)	5.79 µM (inactive)	1.73 µM (inactive)	1.82 µM (inactive)
Cc1ccc(S(=O)(=O)n2cc(/C=C/C#N)c(/C=C/C#N)c2)cc1	63.8 µM (inactive)	72.8 µM (inactive)	–	25.5 µM (inactive)	> 100 µM (inactive)	56.6 µM (inactive)	29.3 µM (inactive)	> 100 µM (inactive)	–	96.6 µM (inactive)	> 100 µM (inactive)	33.7 µM (inactive)	54 µM (inactive)	82 µM (inactive)	23.4 µM (inactive)
O=C(CCc1nnc2s/c(=C\c3ccc([N+](=O)[O-])cc3)c(=O)n12)Nc1ccc(Cl)c(Cl)c1	40.7 µM (inactive)	36.4 µM (inactive)	32.1 µM (inactive)	17.3 µM (inactive)	30.3 µM (inactive)	15.3 µM (inactive)	25.1 µM (inactive)	29.4 µM (inactive)	14.4 µM (inactive)	25.8 µM (inactive)	36.2 µM (inactive)	18.2 µM (inactive)	18.5 µM (inactive)	85.1 µM (inactive)	41.5 µM (inactive)
O=C(O)c1cc(-c2ccccc2O)nc2ccccc12	> 100 µM (inactive)	> 100 µM (inactive)	> 100 µM (inactive)	–	> 100 µM (inactive)	–	> 100 µM (inactive)	> 100 µM (inactive)	–	> 100 µM (inactive)	> 100 µM (inactive)	–	> 100 µM (inactive)	> 100 µM (inactive)	> 100 µM (inactive)
O=C(Nc1cccc(NC(=O)c2cc(=O)c3ccccc3o2)n1)c1cc(=O)c2ccccc2o1	53.6 µM (inactive)	8.32 µM (inactive)	27.1 µM (inactive)	32.3 µM (inactive)	–	6.1 µM (inactive)	49.4 µM (inactive)	> 100 µM (inactive)	–	20.1 µM (inactive)	> 100 µM (inactive)	20.8 µM (inactive)	13.5 µM (inactive)	56.5 µM (inactive)	10.4 µM (inactive)
C#CCN(C)C(=O)N(CC#C)N=O	> 100 µM (inactive)	> 100 µM (inactive)	> 100 µM (inactive)	> 100 µM (inactive)	> 100 µM (inactive)	> 100 µM (inactive)	> 100 µM (inactive)	> 100 µM (inactive)	–	> 100 µM (inactive)	29.5 µM (inactive)	> 100 µM (inactive)	> 100 µM (inactive)	> 100 µM (inactive)	> 100 µM (inactive)
CC(=O)O[C@H]1CCN2C(=O)C=CC(OCc3ccccc3)C12 (some centres undefined)	> 100 µM (inactive)	> 100 µM (inactive)	–	> 100 µM (inactive)	> 100 µM (inactive)	> 100 µM (inactive)	> 100 µM (inactive)	> 100 µM (inactive)	> 100 µM (inactive)	> 100 µM (inactive)	> 100 µM (inactive)	–	> 100 µM (inactive)	> 100 µM (inactive)	> 100 µM (inactive)
O=C(c1ccc2c3c(ccc(C(=O)C(F)(F)F)c13)CC2)C(F)(F)F	57.1 µM (inactive)	58.9 µM (inactive)	69.2 µM (inactive)	–	52.1 µM (inactive)	55.7 µM (inactive)	61.4 µM (inactive)	52.4 µM (inactive)	> 100 µM (inactive)	43.3 µM (inactive)	> 100 µM (inactive)	55.6 µM (inactive)	51.3 µM (inactive)	42.3 µM (inactive)	43.2 µM (inactive)
CC(C)(CN1CCCCC1)C(=O)/C=C/c1ccccc1	16.9 µM (inactive)	25.8 µM (inactive)	15.3 µM (inactive)	–	7.36 µM (inactive)	18.8 µM (inactive)	10.3 µM (inactive)	14.6 µM (inactive)	29 µM (inactive)	15.1 µM (inactive)	19.9 µM (inactive)	11.9 µM (inactive)	13.3 µM (inactive)	14.5 µM (inactive)	15.2 µM (inactive)
COc1ccc(CNc2nc3ccccc3nc2-c2cccs2)cc1OC	16.2 µM (inactive)	23.1 µM (inactive)	33.5 µM (inactive)	22 µM (inactive)	46.2 µM (inactive)	–	12.6 µM (inactive)	45.1 µM (inactive)	68.5 µM (inactive)	25.2 µM (inactive)	> 100 µM (inactive)	41.9 µM (inactive)	47.4 µM (inactive)	23.3 µM (inactive)	22.6 µM (inactive)
Oc1ccc(O)c(-n2cccn2)c1	> 100 µM (inactive)	> 100 µM (inactive)	–	18.7 µM (inactive)	65.9 µM (inactive)	52.7 µM (inactive)	21.9 µM (inactive)	> 100 µM (inactive)	–	> 100 µM (inactive)	88.9 µM (inactive)	38.1 µM (inactive)	85.9 µM (inactive)	–	56.4 µM (inactive)
CCOC(=O)CC1NC(=O)CS1 (centres undefined)	> 100 µM (inactive)	> 100 µM (inactive)	21.7 µM (inactive)	> 100 µM (inactive)	> 100 µM (inactive)	–	> 100 µM (inactive)	> 100 µM (inactive)	12.6 µM (inactive)	> 100 µM (inactive)	> 100 µM (inactive)	–	49.7 µM (inactive)	> 100 µM (inactive)	> 100 µM (inactive)
CC(C)(C)OC(=O)N1N=NC2C1C1CC(OCc3ccccc3)(OCc3ccccc3)C2O1 (centres undefined)	84.5 µM (inactive)	> 100 µM (inactive)	–	8.02 µM (inactive)	> 100 µM (inactive)	18.1 µM (inactive)	7.82 µM (inactive)	65.8 µM (inactive)	21.4 µM (inactive)	21.1 µM (inactive)	> 100 µM (inactive)	27.9 µM (inactive)	35.1 µM (inactive)	23.6 µM (inactive)	29.9 µM (inactive)
